The NIST ThermoML archive (doi:10.1021/je100256w)

Experiment: cn = amount concentration of the nth substance listed, in mol/dm3
Settings: 101 kPa, Liquid, Dip Cell

Cc1ccc(S(=O)(=O)[O-])cc1.[Na+] [sodium p-toluenesulfonate] + O
electrical conductivity [S/m]
Settings | 298 K | 303 K | 308 K | 313 K
c1 = 1.98e-05 | 1.97e-05 | 1.898e-05 | 2.03e-05 | 2.26e-05
c1 = 3.92e-05 | 3.417e-05 | 3.49e-05 | 3.87e-05 | 4.25e-05
c1 = 5.83e-05 | 4.83e-05 | 5.03e-05 | 5.5e-05 | 6.1e-05
c1 = 7.69e-05 | 6.1e-05 | 6.43e-05 | 7.18e-05 | 7.97e-05
c1 = 9.52e-05 | 7.34e-05 | 7.77e-05 | 8.74e-05 | 9.66e-05
c1 = 0.0001132 | 8.47e-05 | 9.1e-05 | 0.000101 | 0.000113
c1 = 0.0001308 | 9.61e-05 | 0.000104 | 0.000115 | 0.000128
c1 = 0.0001481 | 0.000107 | 0.000117 | 0.000127 | 0.000142
c1 = 0.0001651 | 0.000117 | 0.000129 | 0.00014 | 0.000156
c1 = 0.0001818 | 0.000127 | 0.000139 | 0.000152 | 0.000169
c1 = 0.0001982 | 0.000137 | 0.000149 | 0.000164 | 0.000181
c1 = 0.0002143 | 0.000147 | 0.000161 | 0.000175 | 0.000194
c1 = 0.0002456 | 0.000164 | 0.000179 | 0.000196 | 0.000203
c1 = 0.0002609 | 0.00017 | 0.000188 | 0.000192 | 0.000214
c1 = 0.0002759 | 0.00018 | 0.000196 | 0.000201 | 0.000224
c1 = 0.0002906 | 0.0001884 | 0.000192 | 0.000209 | 0.000234
c1 = 0.0003051 | 0.0001964 | 0.0002 | 0.000219 | 0.000242
c1 = 0.0003193 | 0.000203 | 0.000208 | 0.000228 | 0.000253
c1 = 0.0003333 | 0.000196 | 0.000215 | 0.000236 | 0.00026
c1 = 0.0003471 | 0.000201 | 0.000222 | 0.000243 | 0.000269
c1 = 0.0003673 | 0.000206 | 0.000232 | 0.000254 | 0.000281
c1 = 0.0003871 | 0.000219 | 0.000241 | 0.000267 | 0.000293
c1 = 0.0004064 | 0.000228 | 0.000251 | 0.000276 | 0.000305
c1 = 0.0004252 | 0.000236 | 0.000259 | 0.000286 | 0.000315
c1 = 0.0004436 | 0.000242 | 0.000267 | 0.000295 | 0.000326
c1 = 0.0004615 | 0.000249 | 0.000274 | 0.000304 | 0.000336
c1 = 0.0004791 | 0.000258 | 0.000283 | 0.000313 | 0.000342
c1 = 0.0004962 | 0.000265 | 0.000293 | 0.000321 | 0.00035
c1 = 0.000513 | 0.000271 | 0.0003 | 0.00033 | 0.000359
